Earlier results on one substance are cited in publication PMC3229099 (Acta biochimica Polonica, 2011).

In data set [1] the test system is δ receptor versus μ receptor. As to conditions: ref Pawlak et al, 1997.
Another data set deals with opioid δ receptors. The note with it: in vivo studies with the use of selective opioid receptor antagonists; ref Kotlińska et al, 2009.

With “amide of cyclo[N^ε, N^δ -carbonyl-D-Lys^2, Dap^5 ]enkephalin”, the GPI/MVD ratio in data set [1] is 0.33. In addition, the “receptor type mediating antinociception in vivo” value in the data set with opioid δ receptors is reported as “induced antinociception predominantly through opioid δ receptors”.
